# According to patent US12097262B2, “mTORC1 inhibitors” (THE REGENTS OF THE UNIVERSITY OF CALIFORNIA, priority 2014, dated 2024):
# Key:
# [1] = test system: TORC1 and TORC2 outputs (p4E-BP1, pS6); experiment: Drug washout experiment in SNU-449 cells; format: cell-based, human; conditions: 30 nM for 3 h, then washout
# Experimental: Cellular Signaling Effects of Class mTOR Inhibitors. Cells were seeded in 60 mm cell culture dishes and incubated 1-2 days until 70-90% confluency. Cells were treated with compound solution in DMSO (1000×) and incubated at 37° C. in a 5% CO2 humidified incubator for a given length of time. […] After incubation for more than 1 h with a blocking buffer at room temperature, membranes were labeled with primary antibodies by overnight incubation at 4° C., followed by 1 hour incubation with horseradish peroxidase-conjugated (HRP-conjugated) secondary antibodies at room temperature. […] Nitrocellulose membranes were exposed with SuperSignal® West Pico Chemiluminescent Substrate or Femto Maximum Sensitivity Substrate (Thermo Fisher Scientific Inc., Waltham, MA USA) and signals were recorded on a CL-Xposure film (Thermo Fisher Scientific Inc., Waltham, MA USA).
# Drug Washout Experiment. SNU-449 cells were treated with 30 nM of compounds for 3 h. The medium was aspirated out and cells were washed with fresh 10% FBS in RPMI1640 medium. Then, cells were incubated with fresh 10% FBS in RPMI1640 medium at 37° C. for described time period.
# [2] = test system: MCF-7 cells; experiment: Cell proliferation assay (CellTiter-Glo, 72 h), MCF-7 cells; format: cell-based; conditions: 72 hours (FIG. 14B)
# Experimental: FIGS. 14A-14B. FIG. 14A: 786-O cells were treated for 72 hours with the indicated drugs before cell viability was measured. […] FIG. 14B: MCF-7 cells were treated for 72 hours with the indicated drugs before cell viability was measured.
# Cell proliferation assays. Cells grown in 96-well plates were treated with inhibitor in triplicate or vehicle (0.1% DMSO). After 72 h, cell viability was assessed with the […]-GLO® Luminescent Cell Viability Assay (Promega). Cell proliferation curves were generated using Prism.
# [3] = test system: HCT-15; experiment: Cell viability assay (CellTiter-Glo), HCT-15; format: cell-based, human; conditions: Homo sapiens; for EC50: 72 h after compound treatment
# Experimental: (§1) The cells were grown in appropriate medium (vender recommended) supplemented with 10% heat-inactivated fetal bovine serum (FBS), in tissue culture dishes placed in a humidified incubator maintained at 37° C. in an atmosphere of 5% CO2 and 95% air.
# (§2) Cell viability assay. Cells were seeded in a 96-multiwell plate at 3000-4000 cells per well in medium containing FBS and cells were incubated at 37° C. overnight. After 18-20 h, compounds in 10×DMSO solution (n=3) were added to the cells and were incubated for additional 3 days in a humidified incubator in an atmosphere of 5% CO2 and 95% air. After treatment of Cell Titer-Glo® luminescent cell viability assay reagent (Promega Corporation, Madison, WI USA), the luminescence value was recorded using SpectraMax M5 Multi-Mode Microplate Readers (Molecular Devices, LLC, Sunnyvale, CA USA). Concentration response curves were generated on GraphPad Prism (GraphPad Software, La Jolla, CA USA) by calculating the decrease in luminescence values in compound-treated samples relative to the DMSO controls.
# (§3) Anti-proliferative effects of compounds were evaluated in human colorectal cancer HCT-15 cells (mutation: KRAS, PIK3CA), human hepatocellular carcinoma SNU-449 (mutation: TP53, CDKN2A), SNU-398 (mutation: CTNNB 1), SNU-182 (mutation: TP53) and renal adenocarcinoma 786-O (mutation: VHL, PTEN, TP53, CDKN2A) in 72 h after compound treatment.
# [4] = test system: SNU-182; experiment: Cell viability assay (CellTiter-Glo), SNU-182; format: cell-based, human; conditions: Homo sapiens; for EC50: 72 h after compound treatment
# Experimental: as §1, §2, §3
# [5] = test system: 786-O; experiment: Cell viability assay (CellTiter-Glo), 786-O; format: cell-based, human; conditions: Homo sapiens; for EC50: 786-0, 72 h after compound treatment
# Experimental: as §1, §2, §3
# [6] = Effect on blood glucose level in mice; conditions: mice (n=3), intraperitoneal, 1, 3 mg/kg
# Description: Effect on blood glucose level. […] Blood glucose levels (mg/dL) were monitored.
# [7] = test system: mTORC1 and mTORC2 signaling (pS6, p4E-BP1, pAkt S473); experiment: Time-course effects on mTORC1 and mTORC2 signaling in SNU-449; format: cell-based, human; conditions: 0.33-24 h
# Experimental: Cellular Signaling Effects of Class mTOR Inhibitors. Cells were seeded in 60 mm cell culture dishes and incubated 1-2 days until 70-90% confluency. Cells were treated with compound solution in DMSO (1000×) and incubated at 37° C. in a 5% CO2 humidified incubator for a given length of time. Whole cell lysates were prepared using RIPA buffer (R^3792) (TEKnova, Hollister, CA USA) with a phosphatase inhibitor cocktail tablet PhosStop and a protease inhibitor cocktail tablet cOmplete Mini (Roche Diagnostics GmbH, Mannheim, Germany). Cell lysates (based on a certain amount of protein determined by Pierce BCA Protein Assay Kit (PI-23225) (Thermo Fisher Scientific Inc., Waltham, MA USA)) were electrophoresed using a Criterion Tris-HCl gel 4-20% (Bio-Rad Laboratories, Hercules, CA USA) and transferred to a nitrocellulose membrane (162-0115) (Bio-Rad Laboratories, Hercules, CA USA). After incubation for more than 1 h with a blocking buffer at room temperature, membranes were labeled with primary antibodies by overnight incubation at 4° C., followed by 1 hour incubation with horseradish peroxidase-conjugated (HRP-conjugated) secondary antibodies at room temperature. The following antibodies were used for immunoblot: phospho-Akt (S473) (#9271), phospho-Akt (T308) (#2965), total-Akt (#9272), phospho-S6 (Ser240/Ser244) (#2215L), S6 ribosomal protein (#2217), phospho-4E-BP1 (T37/T46) (#2855), total 4E-BP1 (#9644) (Cell Signaling Technology, Inc., Danvers, MA USA), FKBP12 (sc-28814) mouse β-actin (sc-8432) (Santa Cruz Biotechnology, Inc., Dallas, Texas USA), anti-rabbit IgG conjugated with horseradish peroxidase (HRP) (#7074), and anti-mouse IgG conjugated with HRP (#7076) (Cell Signaling Technology, Inc., Danvers, MA USA). Nitrocellulose membranes were exposed with SuperSignal® West Pico Chemiluminescent Substrate or Femto Maximum Sensitivity Substrate (Thermo Fisher Scientific Inc., Waltham, MA USA) and signals were recorded on a CL-Xposure film (Thermo Fisher Scientific Inc., Waltham, MA USA).
# [8] = test system: mTORC1 and mTORC2 downstream signaling (pS6, p4E-BP1, pAkt S473); experiment: Downstream signaling of mTOR by immunoblotting, dose dependence, HCT-15 and SNU-449 cells; format: cell-based, human; conditions: immunoblot at 3 h after compound treatment
# Experimental: Downstream signaling of mTOR was tested using an immunoblotting method at 3 h after compound treatment.
# [9] = test system: phospho-4E-BP1, pS6, phospho-S473 of Akt in 786-O xenograft tumor; experiment: Pharmacodynamic study in human renal cancer 786-O xenograft tumor in mice; format: in vivo
# Experimental: Pharmacodynamic studies of M1071 in human renal cancer 786-O xenograft tumor in mice. […] Tumor samples were collected at 3 h after drug administration. For the MWF group, M-1071 was administered once daily every other day. At 4 h after the last administration, tumor samples were collected. After the freezing tumor samples, they were homogenized and treated with RIPA buffer containing phosphatase inhibitor and protease inhibitor. The following western blotting analysis were conducted in a similar way to abovementioned method.
# [10] = test system: SNU-398; experiment: Cell viability assay (CellTiter-Glo), SNU-398; format: cell-based, human; conditions: Homo sapiens; for EC50: 72 h after compound treatment
# Experimental: as §1, §2, §3
# [11] = test system: mTORC1 and mTORC2; experiment: Western blot analysis of mTORC1/mTORC2 inhibition in MCF-7 cells; format: cell-based; conditions: 4 hours, western blot (FIG. 13A)
# Experimental: FIGS. 13A-13B. FIG. 13A: MCF-7 cells were treated for 4 hours with E1035 and M1071 before harvesting. FIG. 13B: SNU-449 cells were treated with 3 hours with E1010 before harvesting. Cells were lysed and blotted for the indicated proteins. M1071 has the narrowest concentration range between mTORC1 and mTORC2 inhibition. The concentration range between mTORC1 and mTORC2 inhibition widens for E1035.
# Cell Culture and Western Blot Analysis. Cells were grown in 6-well plates and treated with inhibitor at the indicated concentrations or with vehicle (0.1% DMSO). Treated cells were lysed, and lysates were resolved by SDS-PAGE, transferred to nitrocellulose and blotted. All antibodies were purchased from Cell Signaling Technology.
# [12] = test system: SNU-449; experiment: Cell viability assay (CellTiter-Glo), SNU-449; conditions: Homo sapiens; for EC50: SNU-449, 72 h, read-out: EC50 (nM) SNU-449
# Experimental: as §1, §2, §3
# [13] = clinical trials; cited from earlier work
compound,measurement,setting,value
"CO[C@H]1C[C@@H]2CC[C@@H](C)[C@@](O)(O2)C(=O)C(=O)N2CCCC[C@H]2C(=O)O[C@H]([C@H](C)C[C@@H]2CC[C@@H](OCCOCc3cn(CCOCCOCCOCCOCCOCCOCCOCCOCCC(=O)NCCCCn4nc(-c5ccc6oc(N)nc6c5)c5c(N)ncnc54)nn3)[C@H](OC)C2)CC(=O)[C@H](C)/C=C(\C)[C@@H](O)[C@@H](OC)C(=O)[C@H](C)C[C@H](C)/C=C/C=C/C=C/1C [Compound M-1071, 40-O-(2-((1-(32-(4-amino-3-(2-aminobenzo[d]oxazol-5-yl)-1H-pyrazolo[3,4-d]pyrimidin-1-yl)-27-oxo-3,6,9,12,15,18,21,24-octaoxa-28-azadotriacontyl)-1H-1,2,3-triazol-4-yl)methoxy)ethyl)-rapamycin]",sustained inhibitory effect on p4E-BP1 after washout,[1],at least 2 h
same,sustained inhibitory effect on pS6 after washout,[1],at least 4 h
same,effects on cell proliferation,[2],potent effects on cell proliferation
same,EC50,[3],< 10 nM
same,inhibition at 10 µM,"[3]; read-out: % inhibition at 10 μM HCT-15, 10 μM",50 to 100%
same,EC50,[4],< 10 nM
same,inhibition at 10 µM,"[4]; read-out: % inhibition at 10 μM SNU-182, 10 μM",25 to 50%
same,EC50,[5],< 10 nM
same,inhibition at 10 µM,"[5]; 786-0, read-out: % inhibition at 10 μM 786-O, 10 μM",25 to 50%
same,blood glucose level,[6],no increase in blood glucose levels
same,"p4E-BP1 inhibition, time course",[7],continuous complete inhibition of TORC1 outputs within 3-24 h
same,"phosphorylation of Akt S473, time course",[7],"transient feedback activation on Akt S473 at 1 and 3 h, and then a slight inhibition was observed at 24 h"
same,"mTORC1/2 downstream inhibition (pS6, p4E-BP1 and pAkt S473)",[8],stronger inhibition of mTORC1 signaling (pS6 and p4E-BP1) compared to mTORC2 downstream Akt S473 phosphorylation
same,p4E-BP1 inhibition,[8],complete p4E-BP1 inhibition at drug concentrations in which pAkt S473 is not inhibited
same,inhibition of pS6 and p4EBP-1 in tumor,[9]; 5 mg/kg,complete inhibition
same,inhibition of phospho-S473 of Akt in tumor,[9]; highest dosing of 5 mg/kg,slight
same,Phosphorylation of S6 in tumor,[9]; intraperitoneal,inhibited
same,inhibition against phospho-4E-BP1 in tumor,"[9]; intraperitoneal, tumor collected 3 h after administration",dose dependent inhibition
same,EC50,[10],< 10 nM
same,inhibition at 10 µM,"[10]; read-out: % inhibition at 10 μM SNU-398, 10 μM",50 to 100%
same,concentration range between mTORC1 and mTORC2 inhibition,[11],narrowest
same,mTORC2 inhibition,[11],also inhibits mTORC2
same,EC50,[12],< 10 nM
same,inhibition at 10 µM,"[12]; SNU-449, read-out: % inhibition at 10 μM SNU-449",25 to 50%
"CC(C)n1nc(-c2ccc3oc(N)nc3c2)c2c(N)ncnc21 [MLN0128, reference compound]",dose limiting toxicity,[13],Grade ≥3 hyperglycemia
same,time until inhibitory effects disappeared after washout,[1],≤ 1 h
same,EC50,[3],50 to 100 nM
same,EC50,[4],50 to 100 nM
same,EC50,[5],50 to 100 nM
same,"p4E-BP1 inhibition, time course",[7],completely inhibited p4E-BP1 in early onset (0.33-1 h) and then partial phosphorylation of 4E-BP1 was observed after 3 h to 24 h
same,"phosphorylation of Akt S473, time course",[7],blocked phosphorylation of pAkt S473 continuously during 0.33-24 h
same,"mTORC1/2 downstream inhibition (pS6, p4E-BP1 and pAkt S473)",[8],pan-mTORC1/2 downstream inhibition
same,EC50,[10],10 to 50 nM
same,EC50,[12],10 to 50 nM
